According to patent publication US20130040882A1, “USE OF FIBROBLAST GROWTH FACTOR FRAGMENTS” (NOVARTIS AG, priority 2003, published 2013):

Tested on: uterine gene expression
Assay: Gene expression profiling (HGU133A) in the uterus of ovariectomized monkeys treated with estradiol, tamoxifen or raloxifene
Format: in vivo, cynomolgus monkeys (Macaca fascicularis)
Details: uterus, OVX monkeys

Structure (SMILES): C#C[C@]1(O)CC[C@H]2[C@@H]3CCc4cc(O)ccc4[C@H]3CC[C@@]21C [EE]
- Fold change relative to SHAM control: Insulin-like growth factor binding protein 2, 36 kda: 4.4 fold
- Fold change relative to SHAM control: Insulin-like growth factor binding protein 5: 2.8 fold
- Fold change relative to SHAM control: Integrin, beta 5: 1.0 fold
- Fold change relative to SHAM control: Intercrine-alpha, mrna sequence: 0.9 fold
- Fold change relative to SHAM control: LDL receptor adaptor protein: 0.8 fold
- Fold change relative to SHAM control: LIM and senescent cell antigen-like domains 1: 1.4 fold
- Fold change relative to SHAM control: Laminin, beta 1: 1.0 fold
- Fold change relative to SHAM control: Latent transforming growth factor beta binding protein 1: 1.7 fold
- Fold change relative to SHAM control: Matrix metalloproteinase 19: 1.2 fold
- Fold change relative to SHAM control: Mitogen-activated protein kinase kinase kinase kinase 4: 0.9 fold
- Fold change relative to SHAM control: Nidogen (enactin): 2.6 fold
- Fold change relative to SHAM control: Osteoglycin (osteoinductive factor, mimecan): 1.0 fold
- Fold change relative to SHAM control: Peroxiredoxin 1: 1.6 fold
- Fold change relative to SHAM control: Phosphatase and tensin homolog (mutated in multiple advanced cancers 1): 1.2 fold
- Fold change relative to SHAM control: Phospholipid transfer protein: 1.3 fold
- Fold change relative to SHAM control: Pituitary tumour-transforming 1 interacting protein: 0.9 fold
- Fold change relative to SHAM control: Procollagen C-endopeptidase enhancer: 1.5 fold
- Fold change relative to SHAM control: Procollagen-proline, 2-oxoglutarate 4-dioxygenase (proline 4-hydroxylase), alpha polypeptide II: 1.7 fold
- Fold change relative to SHAM control: Progesterone receptor: 3.2 fold
- Fold change relative to SHAM control: Protein tyrosine kinase 9: 1.3 fold
- Fold change relative to SHAM control: SET domain, bifurcated 1: 2.3 fold
- Fold change relative to SHAM control: SPARC-like 1 (mast9, hevin): 1.5 fold
- Fold change relative to SHAM control: Secreted frizzled-related protein 1: 3.6 fold
- Fold change relative to SHAM control: Secreted frizzled-related protein 4: 1.9 fold
- Fold change relative to SHAM control: Secreted protein, acidic, cysteine-rich (osteonectin): 1.4 fold
- Fold change relative to SHAM control: Serine (or cysteine) proteinase inhibitor, clade H (heat shock protein 47), member 1, (collagen binding protein 1): 1.6 fold
- Fold change relative to SHAM control: Solute carrier family 22 (organic cation transporter), member 1-like: 1.6 fold
- Fold change relative to SHAM control: Solute carrier family 25 (mitochondrial carrier; adenine nucleotide translocator), member 5: 1.7 fold
- Fold change relative to SHAM control: Stem cell growth factor; lymphocyte secreted C-type lectin: 1.4 fold
- Fold change relative to SHAM control: Tenascin C (hexabrachion): 0.9 fold
- Fold change relative to SHAM control: Testis Enhanced Gene Transcript (Bax Inhibitor 1): 1.8 fold
- Fold change relative to SHAM control: Thioredoxin interacting protein: 0.5 fold
- Fold change relative to SHAM control: Transforming growth factor, beta-induced, 68 kda: 0.8 fold
- Fold change relative to SHAM control: Ubiquinol-cytochrome c reductase, Rieske iron-sulfur polypeptide 1: 1.1 fold
- Fold change relative to SHAM control: Wingless-type MMTV integration site family, member 2B: 1.5 fold
- Fold change relative to SHAM control: Wingless-type MMTV integration site family, member 16: 0.9 fold
- Fold change relative to OVX: Insulin receptor (Table 46): 0.8 fold
- Fold change relative to SHAM control: Insulin receptor (Table 46): 1.2 fold
- Fold change relative to OVX: Insulin receptor (Table 51): 0.8 fold
- Fold change relative to SHAM control: Insulin receptor (Table 51): 1.2 fold
- Fold change relative to OVX: Fibronectin 1 (entry with OVX average 39): 1.6 fold
- Fold change relative to OVX: Bone morphogenetic protein 1 (entry with OVX average 79): 2.6 fold
- Fold change relative to OVX: Bone morphogenetic protein 1 (entry with OVX average 93): 2.9 fold
- Fold change relative to OVX: Insulin-like growth factor 1 (somatomedin C) (entry with OVX average 102): 5.3 fold
- Fold change relative to OVX: Fibrillin 1 (Marfan syndrome) (entry with OVX average 124): 2.2 fold
- Fold change relative to OVX: Collagen, type I, alpha 2 (entry with OVX average 154): 13.2 fold
- Fold change relative to OVX: Insulin-like growth factor 1 (somatomedin C) (entry with OVX average 156): 6.9 fold
- Fold change relative to OVX: Solute carrier family 2 (facilitated glucose/fructose transporter), member 5 (entry with OVX average 171): 4.4 fold
- Fold change relative to OVX: Solute carrier family 2 (facilitated glucose/fructose transporter), member 5 (entry with OVX average 176): 3.5 fold
- Fold change relative to OVX: Collagen, type IV, alpha 1 (entry with OVX average 182): 4.3 fold
- Fold change relative to OVX: Cyclin-dependent kinase inhibitor 1C (p57, Kip2) (entry with OVX average 224): 0.5 fold
- Fold change relative to OVX: Insulin-like growth factor 1 (somatomedin C) (entry with OVX average 310): 6.3 fold
- Fold change relative to OVX: Fibronectin 1 (entry with OVX average 419): 2.4 fold
- Fold change relative to OVX: Cyclin-dependent kinase inhibitor 1C (p57, Kip2) (entry with OVX average 527): 0.4 fold
- Fold change relative to OVX: Fibronectin 1 (entry with OVX average 586): 2.1 fold
- Fold change relative to OVX: Fibronectin 1 (entry with OVX average 648): 1.9 fold
- Fold change relative to OVX: Collagen, type IV, alpha 1 (entry with OVX average 690): 3.7 fold
- Fold change relative to OVX: Fibronectin 1 (entry with OVX average 757): 1.8 fold
- Fold change relative to OVX: Cyclin-dependent kinase inhibitor 1C (p57, Kip2) (entry with OVX average 762): 0.5 fold
- Fold change relative to OVX: ATP synthase, H+ transporting, mitochondrial F0 complex, subunit c (subunit 9) isoform 3 (entry with OVX average 811): 2.0 fold
- Fold change relative to OVX: Fibrillin 1 (Marfan syndrome) (entry with OVX average 874): 3.5 fold
- Fold change relative to OVX: ATP synthase, H+ transporting, mitochondrial F0 complex, subunit c (subunit 9) isoform 3 (entry with OVX average 1007): 2.0 fold
- Fold change relative to OVX: Collagen, type III, alpha 1 (Ehlers-Danlos syndrome type IV, autosomal dominant) (entry with OVX average 1084): 6.8 fold
- Fold change relative to OVX: Collagen, type I, alpha 2 (entry with OVX average 2757): 5.1 fold
- Fold change relative to OVX: Collagen, type III, alpha 1 (Ehlers-Danlos syndrome type IV, autosomal dominant) (entry with OVX average 3445): 4.1 fold
- Fold change relative to OVX: H3 histone, family 3A (entry with OVX average 9495): 1.5 fold
- Fold change relative to OVX: H3 histone, family 3A (entry with OVX average 9692): 1.4 fold
- Fold change relative to SHAM control: Fibronectin 1 (entry with SHAM average 100): 0.6 fold
- Fold change relative to SHAM control: Bone morphogenetic protein 1 (entry with SHAM average 143): 1.4 fold
- Fold change relative to SHAM control: Cyclin-dependent kinase inhibitor 1C (p57, Kip2) (entry with SHAM average 201): 0.6 fold
- Fold change relative to SHAM control: Bone morphogenetic protein 1 (entry with SHAM average 205): 1.3 fold
- Fold change relative to SHAM control: Insulin-like growth factor 1 (somatomedin C) (entry with SHAM average 226): 2.4 fold
- Fold change relative to SHAM control: Fibrillin 1 (Marfan syndrome) (entry with SHAM average 236): 1.2 fold
- Fold change relative to SHAM control: Solute carrier family 2 (facilitated glucose/fructose transporter), member 5 (entry with SHAM average 291): 2.1 fold
- Fold change relative to SHAM control: Solute carrier family 2 (facilitated glucose/fructose transporter), member 5 (entry with SHAM average 317): 2.4 fold
- Fold change relative to SHAM control: Insulin-like growth factor 1 (somatomedin C) (entry with SHAM average 417): 2.6 fold
- Fold change relative to SHAM control: Collagen, type IV, alpha 1 (entry with SHAM average 436): 1.8 fold
- Fold change relative to SHAM control: Cyclin-dependent kinase inhibitor 1C (p57, Kip2) (entry with SHAM average 459): 0.5 fold
- Fold change relative to SHAM control: Collagen, type I, alpha 2 (entry with SHAM average 493): 4.1 fold
- Fold change relative to SHAM control: Insulin-like growth factor 1 (somatomedin C) (entry with SHAM average 581): 3.4 fold
- Fold change relative to SHAM control: Cyclin-dependent kinase inhibitor 1C (p57, Kip2) (entry with SHAM average 660): 0.5 fold
- Fold change relative to SHAM control: Fibronectin 1 (entry with SHAM average 920): 1.1 fold
- Fold change relative to SHAM control: ATP synthase, H+ transporting, mitochondrial F0 complex, subunit c (subunit 9) isoform 3 (entry with SHAM average 1045): 1.6 fold
- Fold change relative to SHAM control: Fibronectin 1 (entry with SHAM average 1089): 1.1 fold
- Fold change relative to SHAM control: Collagen, type IV, alpha 1 (entry with SHAM average 1143): 2.2 fold
- Fold change relative to SHAM control: Fibronectin 1 (entry with SHAM average 1288): 0.9 fold
- Fold change relative to SHAM control: Fibronectin 1 (entry with SHAM average 1301): 1.1 fold
- Fold change relative to SHAM control: ATP synthase, H+ transporting, mitochondrial F0 complex, subunit c (subunit 9) isoform 3 (entry with SHAM average 1355): 1.5 fold
- Fold change relative to SHAM control: Fibrillin 1 (Marfan syndrome) (entry with SHAM average 1388): 2.2 fold
- Fold change relative to SHAM control: Collagen, type III, alpha 1 (Ehlers-Danlos syndrome type IV, autosomal dominant) (entry with SHAM average 2992): 2.5 fold
- Fold change relative to SHAM control: Collagen, type III, alpha 1 (Ehlers-Danlos syndrome type IV, autosomal dominant) (entry with SHAM average 7354): 1.9 fold
- Fold change relative to SHAM control: Collagen, type I, alpha 2 (entry with SHAM average 7758): 1.8 fold
- Fold change relative to SHAM control: H3 histone, family 3A (entry with SHAM average 9408): 1.5 fold
- Fold change relative to SHAM control: H3 histone, family 3A (entry with SHAM average 10239): 1.4 fold
